Test results as given in patent US12486245B2, “Sequential multi-step flash nanoprecipitation for the formation of nanoparticles with high core loadings” (The Trustees of Princeton University, priority 2019, dated 2025).

Test: Water solubility
Assay type: physicochemical

CCCCOc1ccc(OCCCC)c2c1-c1nc3nc(nc4[nH]c([nH]c5nc(nc-2n1)-c1c(OCCCC)ccc(OCCCC)c1-5)c1c(OCCCC)ccc(OCCCC)c41)-c1c(OCCCC)ccc(OCCCC)c1-3 [762Pc, 1,4,8,11,15,18,22,25-Octabutoxy-29H,31H-phthalocyanine]
water solubility: negligible
